Assay results taken from US8911725B2, “Co-targeting of aurora A kinase and LIM kinase 1 for cancer therapy” (University of Central Florida Research Foundation, Inc., priority 2010, dated 2014).

Tests used:
Type in all cases: cell-based
[1] = system: PC3 cells; test: Cell proliferation by MTS assay, MLN8237 with LIMK1 shRNA or control shRNA
Procedure: 10 cm dishes were transiently transfected with 6 ug of LIMK1 shRNA or control shRNA. 24 hrs post transfection, untransfected PC3 cells along with the transfected PC3 cells were seeded in 96 well plates in triplicate (5,000 cells/well). 14 hrs after seeding, media was changed to MLN8237 containing media, at concentrations of 0.001 uM, 0.01 uM, and 0.1 uM. After 24 and 48 hours of inhibitor treatment, cell proliferation was measured using MTS assay. MTS reagent was added to each well and allowed to incubate for 3 hrs at 37° C. before reading absorbances. Absorbances were compared against controls.

[2] = system: PC3 cells; test: Western blot of LIMK1 and pAurKA after LIMK1 shRNA transfection; conditions: LIMK1 shRNA versus control shRNA
Procedure: FIG. 6 PC3 cells were transfected with LIMK1 shRNA or control shRNA and the levels of LIMK1 and pAurKA were detected by western blotting using anti-LIMK1 or anti phospho-AurKA antibodies. GAPDH was used as the loading control. The ratio of pAurKA to GAPDH levels was determined by densitometry (left panel).

[3] = system: PC3 cells; test: Immunofluorescence of spindle structure after LIMK1 shRNA transfection, spindle abnormalities counted
From the text: FIG. 7 A: PC3 cells were transfected with either LIMK1 or control shRNA. In control shRNA transfected cells, distinct localization of pAurKA (green) at the spindle poles (red) could be noted. […] PC3 cells were transfected with either LIMK1 or control shRNA and spindle abnormalities were quantified by counting 50 cells per treatment.

[4] = system: PC3 and RWPE1 cells; test: Immunofluorescence analysis of cells treated with MLN8237; conditions: MLN8237 0.01 uM, 24 hr
[5] = system: PC3 cells; test: Western blot analysis of nuclear extracts for phospho-Histone H3; conditions: MLN8237 0.01 uM, nuclear extracts from PC3 cells
Procedure: (§1) FIG. 8. […] Western blot analysis of nuclear extracts from PC3 cells treated with MLN8237 (0.01 uM). Y-tubulin staining was used as the loading control. […] PC3 and RWPE1 cells were treated with MLN8237 (0.01 uM) MLN8237 for 24, 48, and 72 hr and cell viability was measured by MTT Assay.

[6] = system: PC3 and RWPE1 cells; test: Cell viability by MTT assay; conditions: MLN8237 0.01 uM, 24, 48 and 72 hr
Procedure: as §1

AAGGACAAGAGGCTCAACTTCATCACTGA (listed as DNA, chemistry not given here) [LIMK1 shRNA, interfering RNA (shRNA) targeting LIMK1]
number of viable cells compared to control shRNA ([1]; 0.001 uM MLN8237, 48 hrs, PC3 cells): 75%
number of viable cells compared to control shRNA ([1]; 0.1 uM MLN8237, 48 hrs, PC3 cells): 83%
sensitivity to MLN8237 versus control shRNA transfected cells ([1]; PC3 cells, MLN8237 0.001-0.1 uM): more sensitivity to MLN8237
sensitivity to AurKA inhibitor versus untransfected PC3 cells treated only with AurKA inhibitor ([1]; normalised to untransfected PC3 cells treated with vehicle (DMSO), 24 and 48 hr): increased the sensitivity of the cells to AurKA inhibitor at all concentrations
level of phosphorylated AurKA [2]: decreased the level of phosphorylated AurkA
number of abnormal spindles ([3]; 50 cells counted per treatment): increased the number of abnormal spindles
spindle structure (alpha-tubulin staining) ([3]; LIMK1 shRNA versus control shRNA): disorganized spindle structure

COc1cc(Nc2ncc3c(n2)-c2ccc(Cl)cc2C(c2c(F)cccc2OC)=NC3)ccc1C(=O)O [MLN8237]
localization of pAurKA and spindle morphology (alpha-tubulin) [4]: mislocalization of pAurKA (green) and improper spindle morphology
localization of pLIMK1 and centrin [4]: diffused staining and mislocalization of pLIMK1 (green) and centrin (red) in the nucleus
levels of phospho-Histone H3 (mitotic arrest) [5]: Increased the Levels of phospho-Histone H3
cell survival (cell viability, MTT) [6]: Decreased Cell Survival
sensitivity of untransfected PC3 cells to MLN8237 (MTS) ([1]; 0.001, 0.01 and 0.1 uM, 24 and 48 hr): most sensitive to 0.1 uM MLN8237 at 48 hrs
